The values below are quoted from earlier work in patent US8911424B2, “Methods and devices for preventing catheter related urinary tract infections” (Ethicon, Inc., priority 2011, dated 2014).

For this data set the following is noted: aqueous solubility.

`[Br][Ag]` [Silver Bromide]: the “Solubility (g/100 g H2O)” value is 0.000014 g/100 g H2O.
